# Reference: patent US20130333715A1, “SHAMPOO COMPOSITIONS AND METHODS OF MAKING SAME” (The Procter & Gamble Company, priority 2012, published 2013)
# Tests used:
# [1] = Calculated conditional stability constants for chelants with Cu^+2 at specified pH; format: physicochemical
# Text: (§1) However, as the pH range of the present compositions are acidic (i.e., less than 7), the log alpha value (αm) is considered to be constant and approximately negligible.
# [2] = Calculated conditional stability constants for chelants with Ca^+2 at specified pH; format: physicochemical
# Text: as §1
# The calculated stability constants for a range of chelants with Fe^+3, Cu^+2, and Ca^+2 are given below in Table 3: […]
# [3] = 1:1 complex, fully deprotonated chelant, 25° C., 0.1M ionic strength; cited from earlier work
# [4] = 1:1 complex, fully deprotonated chelant, 25° C., 0.1M ionic strength; cited from earlier work; remark: listed apart in the source
# [5] = 1:1 complex, fully deprotonated chelant, 25° C., 0.1M ionic strength; cited from earlier work; remark: listed apart in the source
# [6] = Calculated conditional stability constants for chelants with Fe^+3 at specified pH
# Text: The gradual change in ligand species as pH changes can be represented using alpha (α) coefficients, defined as: [formula] […] By combining stability (K) and alpha (α) constants at a given pH, the formula below provides the effective chelating power of a chelant.
log Conditional Stability Constant (@ pH) Cu^+2 ([1]; pH 2),log Conditional Stability Constant (@ pH) Cu^+2 ([1]; pH 3),log Conditional Stability Constant (@ pH) Cu^+2 ([1]; pH 4),log Conditional Stability Constant (@ pH) Cu^+2 ([1]; pH 5),log Conditional Stability Constant (@ pH) Cu^+2 ([1]; pH 6),log Conditional Stability Constant (@ pH) Cu^+2 ([1]; pH 7),log Conditional Stability Constant (@ pH) Ca^+2 ([2]; pH 2),log Conditional Stability Constant (@ pH) Ca^+2 ([2]; pH 3),log Conditional Stability Constant (@ pH) Ca^+2 ([2]; pH 4),log Conditional Stability Constant (@ pH) Ca^+2 ([2]; pH 5),log Conditional Stability Constant (@ pH) Ca^+2 ([2]; pH 6),log Conditional Stability Constant (@ pH) Ca^+2 ([2]; pH 7),log Conditional Stability Constant (@ pH) Ca^+2 ([2]; pH 8),log Conditional Stability Constant (@ pH) Cu^+2 ([1]; pH 8),SMILES,log K Cu [3],log K Ca [4],log K Fe [5],other results
3.80,5.84,7.08,8.11,9.11,10.11,−3.10,−1.06,0.18,1.21,2.21,3.21,4.21,,"CC(C(=O)O)N(CC(=O)O)CC(=O)O (centres unmarked) [MGDA, methylglycinediacetic acid]",,,,
5.45,8.29,10.46,12.45,14.24,15.55,−2.65,0.19,2.36,4.35,6.14,7.45,8.50,16.60,O=C(O)CN(CCN(CC(=O)O)CC(=O)O)CC(=O)O [EDTA],18.78,10.65,14.3,
,,,,,,,,,,,,,,CC(O)(P(=O)(O)O)P(=O)(O)O [HEDP],11.84,6.0,14.1,
,,,,,,,,,,,,,,"O=C(O)CC[C@H](NCCN[C@H](CCC(=O)O)C(=O)O)C(=O)O [EDDG, ethylenediamine-N,N′-diglutaric acid]",15.15,2.70,,
,,,,,,,,,,,,,,O=C(O)CN(CCN(CC(=O)O)Cc1ccccc1O)Cc1ccccc1O [HBED],9.29,9.3,39.7,log Conditional Stability Constant (@ pH) Fe^+3 ([6]; pH 2): 13.54; log Conditional Stability Constant (@ pH) Fe^+3 ([6]; pH 3): 17.54; log Conditional Stability Constant (@ pH) Fe^+3 ([6]; pH 4): 21.52; log Conditional Stability Constant (@ pH) Fe^+3 ([6]; pH 5): 25.39; log Conditional Stability Constant (@ pH) Fe^+3 ([6]; pH 6): 28.82; log Conditional Stability Constant (@ pH) Fe^+3 ([6]; pH 7): 31.89; log Conditional Stability Constant (@ pH) Fe^+3 ([6]; pH 8): 34.85
−0.42,3.32,5.75,7.33,8.45,9.47,−7.62,−3.88,−1.45,0.13,1.25,2.27,3.27,10.47,"O=C(O)CC[C@@H](C(=O)O)N(CC(=O)O)CC(=O)O [GLD, glutamic acid diacetic acid]",,,,
−4.27,−0.37,2.99,5.40,7.45,9.43,−14.17,−10.27,−6.91,−4.50,−2.45,0.47,1.31,11.21,"O=C(O)CC(NCC(O)CNC(CC(=O)O)C(=O)O)C(=O)O (centres unmarked) [HPDDS, 2-hydroxypropylendiamin-N—N′-disucinnic acid]",12.84,2.94,,
3.39,6.30,8.85,10.88,12.41,13.53,−5.81,−2.90,−0.35,1.68,3.21,4.33,5.34,14.54,O=C(O)CN(CCO)CCN(CC(=O)O)CC(=O)O [HEDTA],,,,
2.59,6.28,9.20,11.41,13.39,,−11.11,−7.42,−4.50,−2.29,−0.13,1.36,2.56,16.26,"O=C(O)CC(NCCNC(CC(=O)O)C(=O)O)C(=O)O (mixture of isomers) [EDDS, ethylene diamine disuccinic acid]",18.35,4.58,22.0,log Conditional Stability Constant (@ pH) Fe^+3 ([6]; pH 2): 6.29; log Conditional Stability Constant (@ pH) Fe^+3 ([6]; pH 3): 9.98; log Conditional Stability Constant (@ pH) Fe^+3 ([6]; pH 4): 12.90; log Conditional Stability Constant (@ pH) Fe^+3 ([6]; pH 6): 17.09; log Conditional Stability Constant (@ pH) Fe^+3 ([6]; pH 7): 18.76; log Conditional Stability Constant (@ pH) Fe^+3 ([6]; pH 8): 19.96
3.34,6.88,9.85,12.24,14.31,16.31,−7.26,−3.72,−0.75,1.64,3.71,5.71,7.62,18.22,O=C(O)CN(CCN(CC(=O)O)CC(=O)O)CCN(CC(=O)O)CC(=O)O [DTPA],21.4,10.75,16.4,

SMILES,log Conditional Stability Constant (@ pH) Cu^+2 ([1]; pH 2),log Conditional Stability Constant (@ pH) Cu^+2 ([1]; pH 3),log Conditional Stability Constant (@ pH) Cu^+2 ([1]; pH 4),log Conditional Stability Constant (@ pH) Cu^+2 ([1]; pH 5),log Conditional Stability Constant (@ pH) Cu^+2 ([1]; pH 6),log Conditional Stability Constant (@ pH) Cu^+2 ([1]; pH 7),log Conditional Stability Constant (@ pH) Ca^+2 ([2]; pH 2),log Conditional Stability Constant (@ pH) Ca^+2 ([2]; pH 3),log Conditional Stability Constant (@ pH) Ca^+2 ([2]; pH 4),log Conditional Stability Constant (@ pH) Ca^+2 ([2]; pH 5),log Conditional Stability Constant (@ pH) Ca^+2 ([2]; pH 6),log Conditional Stability Constant (@ pH) Ca^+2 ([2]; pH 7),log Conditional Stability Constant (@ pH) Ca^+2 ([2]; pH 8),log Conditional Stability Constant (@ pH) Cu^+2 ([1]; pH 8),log K Cu [3],log K Ca [4],log K Fe [5],other results
"O=P(O)(O)CN(CCN(CP(=O)(O)O)CP(=O)(O)O)CCN(CP(=O)(O)O)CP(=O)(O)O [DTPMP, diethylenetriamine penta(methylene phosphonic acid)]",−9.10,−5.10,−1.10,2.90,6.87,10.68,−21.50,−17.50,−13.50,−9.50,−5.53,−1.72,1.45,13.85,19.5,7.1,26.5,log Conditional Stability Constant (@ pH) Fe^+3 ([6]; pH 2): −2.10; log Conditional Stability Constant (@ pH) Fe^+3 ([6]; pH 3): 1.90; log Conditional Stability Constant (@ pH) Fe^+3 ([6]; pH 4): 5.90; log Conditional Stability Constant (@ pH) Fe^+3 ([6]; pH 5): 9.90; log Conditional Stability Constant (@ pH) Fe^+3 ([6]; pH 6): 13.87; log Conditional Stability Constant (@ pH) Fe^+3 ([6]; pH 7): 17.68; log Conditional Stability Constant (@ pH) Fe^+3 ([6]; pH 8): 20.85
